Results published in patent US20240024488A1, “COMPOUNDS AND USES THEREOF” (Foghorn Therapeutics Inc., priority 2020, published 2024).
Structures can show the parent of a compound that is named as a salt.

Columns and labels:
[1] = molecular target: T1, HiBit-BRG1 fusion protein (Homo sapiens, UniProt P51532); assay: HiBiT-BRG1 cell-based degradation assay (Nano-Glo HiBiT Lytic Detection, 24 h); conditions: HeLa cell line expressing HiBit-BRG1 and LgBit; for Dmax: read-out: BRG1 HiBit Degradation Maximum (%)
T1 construct: expressed in transfected cells
T1 sequence (P51532 whole entry, the tested form may be a part): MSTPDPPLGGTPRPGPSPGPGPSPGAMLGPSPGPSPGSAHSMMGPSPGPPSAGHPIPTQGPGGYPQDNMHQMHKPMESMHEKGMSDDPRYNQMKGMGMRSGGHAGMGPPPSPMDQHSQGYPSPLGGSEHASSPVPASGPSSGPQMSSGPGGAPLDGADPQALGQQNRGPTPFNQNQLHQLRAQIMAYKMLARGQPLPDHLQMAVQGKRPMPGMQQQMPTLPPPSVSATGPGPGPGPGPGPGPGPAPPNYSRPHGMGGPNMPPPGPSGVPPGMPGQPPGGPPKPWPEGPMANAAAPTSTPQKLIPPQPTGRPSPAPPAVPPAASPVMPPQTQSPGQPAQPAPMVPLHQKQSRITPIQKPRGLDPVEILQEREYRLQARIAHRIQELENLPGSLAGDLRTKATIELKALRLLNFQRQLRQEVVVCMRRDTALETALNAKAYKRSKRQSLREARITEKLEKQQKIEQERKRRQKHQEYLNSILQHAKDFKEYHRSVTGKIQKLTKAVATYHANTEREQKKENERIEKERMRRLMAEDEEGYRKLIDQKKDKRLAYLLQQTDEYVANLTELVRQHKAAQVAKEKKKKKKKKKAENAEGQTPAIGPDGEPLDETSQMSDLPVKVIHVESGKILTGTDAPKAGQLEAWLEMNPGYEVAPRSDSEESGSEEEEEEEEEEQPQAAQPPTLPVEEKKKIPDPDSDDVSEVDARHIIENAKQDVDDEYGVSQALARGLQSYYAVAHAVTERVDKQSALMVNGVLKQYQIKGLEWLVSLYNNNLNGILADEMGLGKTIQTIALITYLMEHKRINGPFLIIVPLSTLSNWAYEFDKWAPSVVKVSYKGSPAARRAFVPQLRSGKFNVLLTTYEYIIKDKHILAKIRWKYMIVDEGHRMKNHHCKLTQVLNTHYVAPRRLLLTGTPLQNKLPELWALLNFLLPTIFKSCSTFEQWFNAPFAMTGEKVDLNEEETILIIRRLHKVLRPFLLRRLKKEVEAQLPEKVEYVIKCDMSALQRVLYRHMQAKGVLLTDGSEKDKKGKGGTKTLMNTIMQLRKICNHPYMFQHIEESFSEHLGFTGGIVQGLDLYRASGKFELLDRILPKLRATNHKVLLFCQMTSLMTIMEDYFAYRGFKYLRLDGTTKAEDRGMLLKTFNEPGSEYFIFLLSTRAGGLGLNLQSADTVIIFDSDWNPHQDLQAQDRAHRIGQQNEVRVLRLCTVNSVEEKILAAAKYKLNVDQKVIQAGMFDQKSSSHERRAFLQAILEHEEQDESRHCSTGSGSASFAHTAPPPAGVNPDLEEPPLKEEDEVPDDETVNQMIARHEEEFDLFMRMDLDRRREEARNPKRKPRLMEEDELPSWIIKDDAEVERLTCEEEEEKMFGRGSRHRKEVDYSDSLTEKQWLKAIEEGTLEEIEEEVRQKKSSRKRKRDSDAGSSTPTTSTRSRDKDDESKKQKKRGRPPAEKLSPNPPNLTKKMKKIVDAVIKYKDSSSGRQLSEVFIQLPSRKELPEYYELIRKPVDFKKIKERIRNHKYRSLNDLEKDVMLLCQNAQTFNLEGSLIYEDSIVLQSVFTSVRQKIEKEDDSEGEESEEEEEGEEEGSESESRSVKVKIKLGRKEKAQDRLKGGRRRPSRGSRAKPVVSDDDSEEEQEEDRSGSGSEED
Method: Procedure: A stable HeLa cell line expressing HiBiT-BRM was generated. On day 0, 5000 cells were seeded in 40 μL of media into each well of 384-well cell culture plates. […] Subsequently plates were incubated for 24 h in a standard tissue culture incubator and equilibrated at room temperature for 15 minutes. Nano-Glo HiBiT Lytic Detection System (Promega N3050) reagent was freshly prepared and 20 ul was added to each well. Upon addition of this LgBit-containing reagent, the HiBiT and LgBiT proteins associate to form the luminescent NanoBiT luciferase. The plates were shaken for 10 minutes at room temperature and the bioluminescence read using an EnVision plate reader (PerkinElmer).
For measurement of BRG1 degradation, a stable HeLa cell line expressing HiBit-BRG1 and LgBit was generated. The same protocol as above was then followed.
(§1) The degradation % was calculated using the following formula: % degradation=100%−100%×(LumSample−LumLC)/(LumHC−LumLC). DMSO treated cells are employed as High Control (HC) and 2 μM of a known BRM/BRG1 degrader standard treated cells are employed as Low Control (LC).

HiBit-BRM fusion protein = molecular target: T2, HiBit-BRM fusion protein (Homo sapiens, UniProt P51531); assay: HiBiT-BRM cell-based degradation assay (Nano-Glo HiBiT Lytic Detection, 24 h); conditions: HeLa cell line expressing HiBiT-BRM; for DC50: read-out: BRM HiBit Degradation IC50
T2 construct: expressed in transfected cells
T2 sequence (P51531 whole entry, the tested form may be a part): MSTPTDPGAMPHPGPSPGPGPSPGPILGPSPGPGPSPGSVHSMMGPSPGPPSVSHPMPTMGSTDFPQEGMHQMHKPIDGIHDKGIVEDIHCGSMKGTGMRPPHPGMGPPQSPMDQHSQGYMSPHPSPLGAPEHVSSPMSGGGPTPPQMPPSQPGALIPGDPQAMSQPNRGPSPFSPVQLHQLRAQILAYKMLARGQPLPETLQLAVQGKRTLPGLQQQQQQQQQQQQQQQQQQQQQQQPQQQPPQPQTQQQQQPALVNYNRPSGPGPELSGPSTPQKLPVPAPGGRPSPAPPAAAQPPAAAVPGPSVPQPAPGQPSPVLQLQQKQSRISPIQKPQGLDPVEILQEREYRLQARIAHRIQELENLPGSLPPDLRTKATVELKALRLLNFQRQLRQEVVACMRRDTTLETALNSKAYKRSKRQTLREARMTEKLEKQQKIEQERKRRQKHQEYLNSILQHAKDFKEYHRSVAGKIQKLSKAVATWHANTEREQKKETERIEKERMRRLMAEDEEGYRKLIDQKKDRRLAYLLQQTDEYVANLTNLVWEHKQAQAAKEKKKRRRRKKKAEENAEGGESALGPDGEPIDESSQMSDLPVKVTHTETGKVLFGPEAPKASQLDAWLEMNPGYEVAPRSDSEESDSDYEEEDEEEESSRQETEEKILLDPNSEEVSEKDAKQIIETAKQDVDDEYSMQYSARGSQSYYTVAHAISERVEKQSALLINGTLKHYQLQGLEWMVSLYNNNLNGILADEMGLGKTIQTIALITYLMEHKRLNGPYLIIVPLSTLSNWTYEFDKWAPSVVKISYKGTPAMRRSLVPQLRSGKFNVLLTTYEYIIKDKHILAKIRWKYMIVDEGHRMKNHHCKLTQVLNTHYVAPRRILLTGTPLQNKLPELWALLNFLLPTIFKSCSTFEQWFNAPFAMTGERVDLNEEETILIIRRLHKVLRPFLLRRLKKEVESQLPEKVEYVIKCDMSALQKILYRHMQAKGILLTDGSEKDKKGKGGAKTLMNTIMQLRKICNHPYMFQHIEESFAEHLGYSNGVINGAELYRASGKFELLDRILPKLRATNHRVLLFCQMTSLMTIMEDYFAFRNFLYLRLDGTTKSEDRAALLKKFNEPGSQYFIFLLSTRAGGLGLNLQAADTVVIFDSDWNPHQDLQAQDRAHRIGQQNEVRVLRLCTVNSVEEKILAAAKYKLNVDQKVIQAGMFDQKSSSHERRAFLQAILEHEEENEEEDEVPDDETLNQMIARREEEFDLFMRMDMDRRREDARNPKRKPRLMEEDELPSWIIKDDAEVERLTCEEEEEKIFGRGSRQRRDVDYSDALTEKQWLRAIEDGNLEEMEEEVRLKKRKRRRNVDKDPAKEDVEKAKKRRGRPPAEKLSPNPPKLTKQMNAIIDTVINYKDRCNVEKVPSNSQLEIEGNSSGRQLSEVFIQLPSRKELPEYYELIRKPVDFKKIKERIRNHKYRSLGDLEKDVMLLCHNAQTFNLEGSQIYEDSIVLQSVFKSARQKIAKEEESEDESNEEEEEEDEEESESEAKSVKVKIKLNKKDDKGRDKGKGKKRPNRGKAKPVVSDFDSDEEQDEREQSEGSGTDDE
Method: Procedure: A stable HeLa cell line expressing HiBiT-BRM was generated. On day 0, 5000 cells were seeded in 40 μL of media into each well of 384-well cell culture plates. On day 1, cells were treated with 120 nL DMSO or 120 nL of 3-fold serially DMSO-diluted compounds (10 points in duplicate with 30 μM as final top dose). Subsequently plates were incubated for 24 h in a standard tissue culture incubator and equilibrated at room temperature for 15 minutes. Nano-Glo HiBiT Lytic Detection System (Promega N3050) reagent was freshly prepared and 20 ul was added to each well. Upon addition of this LgBit-containing reagent, the HiBiT and LgBiT proteins associate to form the luminescent NanoBiT luciferase. The plates were shaken for 10 minutes at room temperature and the bioluminescence read using an EnVision plate reader (PerkinElmer).
as §1

SMILES	Dmax [1] [%]	BRM HiBit Degradation Maximum (%) (HiBit-BRM fusion protein)	DC50 ([1]; read-out: BRMG1 HiBit Degradation IC50) [nM]	DC50 (HiBit-BRM fusion protein) [nM]
Cc1ncsc1-c1ccc(CNC(=O)[C@@H]2C[C@@H](O)CN2C(=O)[C@@H](NC(=O)CCCCCNC(=O)[C@H]2CCc3[nH]c4nnc(-c5ccccc5O)cc4c3C2)C(C)(C)C)cc1 (racemic) [Compound 189, (S)-N-(6-(((S)-1-((2S,4R)-4-hydroxy-2-((4-(4-methylthiazol-5-yl)benzyl)carbamoyl)pyrrolidin-1-yl)-3,3-dimethyl-1-oxobutan-2-yl)amino)-6-oxohexyl)-3-(2-hydroxyphenyl)-6,7,8,9-tetrahydro-5H-pyridazino[3,4-b]indole-6-carboxamide]	< 50	C (“C” indicates maximum degradation < 50%)	–	–
Cc1ncsc1-c1ccc([C@H](C)NC(=O)[C@@H]2C[C@@H](O)CN2C(=O)[C@@H](c2cc(OCCNC3CC4(C3)CC(c3cc5cc(-c6ccccc6O)nnc5[nH]3)C4)no2)C(C)C)cc1 (mixture of isomers) [Compound 223, (2S,4R)-4-hydroxy-1-((R)-2-(3-(2-((6-(3-(2-hydroxyphenyl)-7H-pyrrolo[2,3-c]pyridazin-6-yl)spiro[3.3]heptan-2-yl)amino)ethoxy)isoxazol-5-yl)-3-methylbutanoyl)-N-((S)-1-(4-(4-methylthiazol-5-yl)phenyl)ethyl)pyrrolidine-2-carboxamide]	> 75	A (“A” indicates maximum degradation ≥ 75%)	> 100	> 10
Cc1ncsc1-c1ccc(CNC(=O)[C@@H]2C[C@@H](O)CN2C(=O)[C@@H](c2cc(OCCN3CC(c4cc5cc(-c6ccccc6O)nnc5[nH]4)C3)no2)C(C)C)cc1 (single isomer, unassigned) [Compound 209]	< 50	A (“A” indicates maximum degradation ≥ 75%)	–	> 10
Cc1ncsc1-c1ccc([C@H](C)NC(=O)[C@@H]2C[C@@H](O)CN2C(=O)[C@H](c2cc(C3CN(C(=O)[C@H]4CCc5[nH]c6nnc(-c7ccccc7O)cc6c5C4)C3)no2)C(C)C)cc1 (single isomer, unassigned) [Compound 153]	< 50	C (“C” indicates maximum degradation < 50%)	–	–
Cc1ncsc1-c1ccc(CNC(=O)[C@@H]2C[C@@H](O)CN2C(=O)[C@@H](NC(=O)CCCCCCC(=O)N2CC(c3cc4cc(-c5ccccc5O)nnc4[nH]3)C2)C(C)(C)C)cc1 [Compound 3, (2S,4R)-4-hydroxy-1-((S)-2-(8-(3-(3-(2-hydroxyphenyl)-7H-pyrrolo[2,3-c]pyridazin-6-yl)azetidin-1-yl)-8-oxooctanamido)-3,3-dimethylbutanoyl)-N-(4-(4-methylthiazol-5-yl)benzyl)pyrrolidine-2-carboxamide]	< 50	B (“B” indicates maximum degradation ≥ 50%)	–	> 1000
Cc1ncsc1-c1ccc([C@H](C)NC(=O)[C@@H]2C[C@@H](O)CN2C(=O)[C@H](c2cc([C@H]3CC[C@@H](c4cnc(N5CCC(c6c[nH]c7nnc(-c8ccccc8O)cc67)CC5)nc4)CC3)no2)C(C)C)cc1 [Compound 309, (2S,4R)-4-hydroxy-N-[(1S)-1-[4-(4-methyl-1,3-thiazol-5-yl)phenyl]ethyl]-1-[(2S)-3-methyl-2-{3-[(1s,4s)-4-(2-{4-[3-(2-hydroxyphenyl)-7H-pyrrolo[2,3-c]pyridazin-5-yl]piperidin-1-yl}pyrimidin-5-yl)cyclohexyl]-1,2-oxazol-5-yl}butanoyl]pyrrolidine-2-carboxamide]	< 50	B (“B” indicates maximum degradation ≥ 50%)	–	> 100
Cc1ncsc1-c1ccc([C@H](C)NC(=O)[C@@H]2C[C@@H](O)CN2C(=O)[C@@H](c2cc(C3CCN(C(=O)N4CCc5[nH]c6nnc(-c7ccccc7O)cc6c5C4)CC3)no2)C(C)C)cc1 [Compound 105, (2S,4R)-4-hydroxy-1-((R)-2-(3-(1-(3-(2-hydroxyphenyl)-6,7,8,9-tetrahydro-5H-pyrido[3′,4′:4,5]pyrrolo[2,3-c]pyridazine-6-carbonyl)piperidin-4-yl)isoxazol-5-yl)-3-methylbutanoyl)-N—((S)-1-(4-(4-methylthiazol-5-yl)phenyl)ethyl)pyrrolidine-2-carboxamide]	–	A (“A” indicates maximum degradation ≥ 75%)	–	> 10
Cc1ncsc1-c1ccc([C@H](C)NC(=O)[C@@H]2C[C@@H](O)CN2C(=O)[C@@H](c2cc(OCCN3CC(c4c(C)[nH]c5nnc(-c6ccccc6O)cc45)C3)no2)C(C)C)cc1 (racemic) [Compound 254, (2S,4R)-4-hydroxy-1-((R)-2-(3-(2-(3-(3-(2-hydroxyphenyl)-6-methyl-7H-pyrrolo[2,3-c]pyridazin-5-yl)azetidin-1-yl)ethoxy)isoxazol-5-yl)-3-methylbutanoyl)-N-((S)-1-(4-(4-methylthiazol-5-yl)phenyl)ethyl)pyrrolidine-2-carboxamide]	< 50	A (“A” indicates maximum degradation ≥ 75%)	–	> 10
Cc1ncsc1-c1ccc([C@H](C)NC(=O)[C@@H]2C[C@@H](O)CN2C(=O)[C@@H](c2cc(N3CCN(CCN4CC(c5cc6cc(-c7ccccc7O)nnc6[nH]5)C4)CC3)no2)C(C)C)cc1 (racemic) [Compound 273, (2S,4R)-4-hydroxy-1-[(2R)-2-{3-[4-(2-{3-[3-(2-hydroxyphenyl)-7H-pyrrolo[2,3-c]pyridazin-6-yl]azetidin-1-yl}ethyl)piperazin-1-yl]-1,2-oxazol-5-yl}-3-methylbutanoyl]-N-[(1S)-1-[4-(4-methyl-1,3-thiazol-5-yl)phenyl]ethyl]pyrrolidine-2-carboxamide]	–	A (“A” indicates maximum degradation ≥ 75%)	–	> 100
Cc1ncsc1-c1ccc([C@H](C)NC(=O)[C@@H]2C[C@@H](O)CN2C(=O)[C@H](c2cc(OCCN3CC(c4cc5cc(-c6ccccc6O)nnc5[nH]4)C3)no2)C(C)C)cc1 (racemic) [Compound 62, (2S,4R)-4-hydroxy-1-((S)-2-(3-(2-(3-(3-(2-hydroxyphenyl)-7H-pyrrolo[2,3-c]pyridazin-6-yl)azetidin-1-yl)ethoxy)isoxazol-5-yl)-3-methylbutanoyl)-N-((S)-1-(4-(4-methylthiazol-5-yl)phenyl)ethyl)pyrrolidine-2-carboxamide]	–	C (“C” indicates maximum degradation < 50%)	–	–
Cc1ncsc1-c1ccc([C@H](C)NC(=O)[C@@H]2C[C@@H](O)CN2C(=O)[C@@H](c2cc(OCCN3CC(c4c[nH]c5nnc(-c6ccccc6O)cc45)C3)no2)C(C)C)cc1 [Compound 15, (2S,4R)-4-hydroxy-1-((R)-2-(3-(2-(3-(3-(2-hydroxyphenyl)-7H-pyrrolo[2,3-c]pyridazin-5-yl)azetidin-1-yl)ethoxy)isoxazol-5-yl)-3-methylbutanoyl)-N—((S)-1-(4-(4-methylthiazol-5-yl)phenyl)ethyl)pyrrolidine-2-carboxamide formate]	–	A (“A” indicates maximum degradation ≥ 75%)	–	> 100
Cc1ncsc1-c1ccc([C@H](C)NC(=O)[C@@H]2C[C@@H](O)CN2C(=O)[C@@H](c2cc(OCCN3CC(c4cc5cc(-c6ccccc6O)nnc5[nH]4)C3)no2)C(C)C)cc1 [Compound 14, (2S,4R)-4-hydroxy-1-((R)-2-(3-(2-(3-(3-(2-hydroxyphenyl)-7H-pyrrolo[2,3-c]pyridazin-6-yl)azetidin-1-yl)ethoxy)isoxazol-5-yl)-3-methylbutanoyl)-N—((S)-1-(4-(4-methylthiazol-5-yl)phenyl)ethyl)pyrrolidine-2-carboxamide formate]	–	A (“A” indicates maximum degradation ≥ 75%)	–	> 10
